ChEMBL document CHEMBL1201862, “PubChem BioAssay data set” (2004)
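Compound exposure: 48 hours, 5 concentrations, 96-well plates. GI50: concentration for 50% inhibition of growth.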 The source made the active and inactive calls. Cut-off read from the data, not from the text of the source: active = GI50 up to about 1.1 µM and inactive = higher.

Key:
Experiment in all cases: inhibition of tumour cell growth, NCI panel, 48 h
PC-3 = tested on: PC-3
NCI-H460 = tested on: NCI-H460
KM12 = tested on: KM12
TK-10 = tested on: TK-10
SK-MEL-28 = tested on: SK-MEL-28
LOX IMVI = tested on: LOX IMVI
NCI-H23 = tested on: NCI-H23
MDA-MB-435 = tested on: MDA-MB-435
MDA-MB-231 = tested on: MDA-MB-231
HOP-92 = tested on: HOP-92
OVCAR-5 = tested on: OVCAR-5
NCI-H522 = tested on: NCI-H522
MCF7 = tested on: MCF7
UACC-62 = tested on: UACC-62
T47D = tested on: T47D
HL-60 = tested on: HL-60
HCT-15 = tested on: HCT-15
DU-145 = tested on: DU-145
M14 = tested on: M14
A549 = tested on: A549
HCT-116 = tested on: HCT-116
NCI/ADR-RES = tested on: NCI/ADR-RES
MDA-N = tested on: MDA-N
EKVX = tested on: EKVX
UACC-257 = tested on: UACC-257
CCRF-CEM = tested on: CCRF-CEM
SW-620 = tested on: SW-620
COLO 205 = tested on: COLO 205
HT-29 = tested on: HT-29
OVCAR-8 = tested on: OVCAR-8
SR = tested on: SR
SNB-75 = tested on: SNB-75
HOP-62 = tested on: HOP-62
IGROV-1 = tested on: IGROV-1
SNB-19 = tested on: SNB-19
786-0 = tested on: 786-0
K562 = tested on: K562
OVCAR-3 = tested on: OVCAR-3
OVCAR-4 = tested on: OVCAR-4
SF-268 = tested on: SF-268
SF-295 = tested on: SF-295
MOLT-4 = tested on: MOLT-4
SF-539 = tested on: SF-539
SK-OV-3 = tested on: SK-OV-3
U-251 = tested on: U-251
BT-549 = tested on: BT-549
SN12C = tested on: SN12C
HCC 2998 = tested on: HCC 2998
SK-MEL-5 = tested on: SK-MEL-5
Hs-578T = tested on: Hs-578T
NCI-H226 = tested on: NCI-H226
CAKI-1 = tested on: CAKI-1
UO-31 = tested on: UO-31
A498 = tested on: A498
SK-MEL-2 = tested on: SK-MEL-2
ACHN = tested on: ACHN
Malme-3M = tested on: Malme-3M
RXF 393 = tested on: RXF 393
RPMI-8226 = tested on: RPMI-8226

c1ccc2c(c1)SCCCSCCCS2
GI50 (PC-3): > 100 µM (inactive)
GI50 (NCI-H460): > 100 µM (inactive)
GI50 (KM12): > 100 µM (inactive)
GI50 (TK-10): > 100 µM (inactive)
GI50 (SK-MEL-28): > 100 µM (inactive)
GI50 (LOX IMVI): > 100 µM (inactive)
GI50 (NCI-H23): > 100 µM (inactive)
GI50 (MDA-MB-435): > 100 µM (inactive)
GI50 (MDA-MB-231): 65.3 µM (inactive)
GI50 (HOP-92): 60.1 µM (inactive)
GI50 (OVCAR-5): > 100 µM (inactive)
GI50 (NCI-H522): > 100 µM (inactive)
GI50 (MCF7): > 100 µM (inactive)
GI50 (UACC-62): > 100 µM (inactive)
GI50 (T47D): > 100 µM (inactive)
GI50 (HL-60): 28.1 µM (inactive)
GI50 (HCT-15): > 100 µM
GI50 (DU-145): > 100 µM (inactive)
GI50 (M14): > 100 µM (inactive)
GI50 (A549): > 100 µM (inactive)
GI50 (HCT-116): 63.4 µM (inactive)
GI50 (NCI/ADR-RES): > 100 µM (inactive)
GI50 (MDA-N): > 100 µM (inactive)
GI50 (EKVX): > 100 µM (inactive)
GI50 (UACC-257): > 100 µM (inactive)
GI50 (CCRF-CEM): > 100 µM (inactive)
GI50 (SW-620): > 100 µM (inactive)
GI50 (COLO 205): 74.5 µM (inactive)
GI50 (HT-29): > 10 µM (inactive)
GI50 (OVCAR-8): > 100 µM (inactive)
GI50 (SR): 50.5 µM (inactive)
GI50 (SNB-75): > 100 µM (inactive)
GI50 (HOP-62): > 100 µM (inactive)
GI50 (IGROV-1): > 100 µM (inactive)
GI50 (SNB-19): > 100 µM (inactive)
GI50 (786-0): > 100 µM (inactive)
GI50 (K562): > 100 µM (inactive)
GI50 (OVCAR-3): > 100 µM (inactive)
GI50 (OVCAR-4): 76 µM (inactive)
GI50 (SF-268): > 100 µM (inactive)
GI50 (SF-295): > 100 µM (inactive)
GI50 (MOLT-4): 67.6 µM (inactive)
GI50 (SF-539): > 100 µM (inactive)
GI50 (SK-OV-3): > 100 µM (inactive)
GI50 (U-251): > 100 µM (inactive)
GI50 (BT-549): > 100 µM (inactive)
GI50 (SN12C): > 100 µM (inactive)
GI50 (HCC 2998): > 100 µM (inactive)
GI50 (SK-MEL-5): > 100 µM (inactive)

NC12CC3C4CC5(N)CC3C(C1)C(C5)C4C2
GI50 (Hs-578T): > 100 µM (inactive)
GI50 (PC-3): > 100 µM (inactive)
GI50 (NCI-H460): > 100 µM (inactive)
GI50 (KM12): > 100 µM (inactive)
GI50 (TK-10): > 100 µM (inactive)
GI50 (SK-MEL-28): > 100 µM (inactive)
GI50 (LOX IMVI): > 100 µM (inactive)
GI50 (NCI-H23): > 100 µM (inactive)
GI50 (MDA-MB-435): > 100 µM (inactive)
GI50 (MDA-MB-231): > 100 µM (inactive)
GI50 (NCI-H226): > 100 µM (inactive)
GI50 (HOP-92): > 100 µM (inactive)
GI50 (OVCAR-5): > 100 µM (inactive)
GI50 (NCI-H522): > 100 µM (inactive)
GI50 (MCF7): > 100 µM (inactive)
GI50 (CAKI-1): > 100 µM (inactive)
GI50 (UACC-62): > 100 µM (inactive)
GI50 (T47D): > 100 µM (inactive)
GI50 (HL-60): > 100 µM (inactive)
GI50 (UO-31): > 100 µM (inactive)
GI50 (HCT-15): > 100 µM
GI50 (M14): > 100 µM (inactive)
GI50 (A549): > 100 µM (inactive)
GI50 (A498): > 100 µM (inactive)
GI50 (HCT-116): > 100 µM (inactive)
GI50 (NCI/ADR-RES): > 100 µM (inactive)
GI50 (MDA-N): > 100 µM (inactive)
GI50 (SK-MEL-2): > 100 µM (inactive)
GI50 (EKVX): > 100 µM (inactive)
GI50 (UACC-257): > 100 µM (inactive)
GI50 (CCRF-CEM): > 100 µM (inactive)
GI50 (SW-620): > 100 µM (inactive)
GI50 (COLO 205): > 100 µM (inactive)
GI50 (HT-29): > 100 µM (inactive)
GI50 (OVCAR-8): > 100 µM (inactive)
GI50 (HOP-62): > 100 µM (inactive)
GI50 (IGROV-1): > 100 µM (inactive)
GI50 (SNB-19): > 100 µM (inactive)
GI50 (786-0): > 100 µM (inactive)
GI50 (K562): > 100 µM (inactive)
GI50 (OVCAR-3): > 100 µM (inactive)
GI50 (OVCAR-4): > 100 µM (inactive)
GI50 (SF-268): > 100 µM (inactive)
GI50 (ACHN): > 100 µM (inactive)
GI50 (SF-295): > 100 µM (inactive)
GI50 (MOLT-4): > 100 µM (inactive)
GI50 (Malme-3M): > 100 µM (inactive)
GI50 (RXF 393): > 100 µM (inactive)
GI50 (SK-OV-3): > 100 µM (inactive)
GI50 (U-251): > 100 µM (inactive)
GI50 (BT-549): > 100 µM (inactive)
GI50 (SN12C): > 100 µM (inactive)
GI50 (SK-MEL-5): > 100 µM (inactive)

CC(C)CCC[C@@H](C)[C@H]1CC[C@H]2C3=C[C@H](OS(=O)(=O)O)[C@@]4(O)C[C@@H](O)CC[C@]4(C)[C@@]3(O)CC[C@]12C
GI50 (PC-3): > 100 µM (inactive)
GI50 (NCI-H460): > 100 µM (inactive)
GI50 (KM12): 84.5 µM (inactive)
GI50 (TK-10): > 100 µM (inactive)
GI50 (SK-MEL-28): > 100 µM (inactive)
GI50 (LOX IMVI): > 100 µM (inactive)
GI50 (NCI-H23): > 100 µM (inactive)
GI50 (MDA-MB-435): > 100 µM (inactive)
GI50 (MDA-MB-231): > 100 µM (inactive)
GI50 (NCI-H226): 60 µM (inactive)
GI50 (HOP-92): > 100 µM (inactive)
GI50 (OVCAR-5): > 100 µM (inactive)
GI50 (NCI-H522): > 100 µM (inactive)
GI50 (MCF7): > 100 µM (inactive)
GI50 (CAKI-1): > 100 µM (inactive)
GI50 (UACC-62): > 100 µM (inactive)
GI50 (T47D): 83.6 µM (inactive)
GI50 (UO-31): > 100 µM (inactive)
GI50 (HCT-15): > 100 µM
GI50 (DU-145): > 100 µM (inactive)
GI50 (M14): > 100 µM (inactive)
GI50 (A549): > 100 µM (inactive)
GI50 (A498): > 100 µM (inactive)
GI50 (HCT-116): 98.9 µM (inactive)
GI50 (NCI/ADR-RES): > 100 µM (inactive)
GI50 (RPMI-8226): > 100 µM (inactive)
GI50 (MDA-N): > 100 µM (inactive)
GI50 (SK-MEL-2): > 100 µM (inactive)
GI50 (EKVX): > 100 µM (inactive)
GI50 (UACC-257): > 100 µM (inactive)
GI50 (CCRF-CEM): 49.2 µM (inactive)
GI50 (SW-620): > 100 µM (inactive)
GI50 (COLO 205): > 100 µM (inactive)
GI50 (HT-29): 42 µM (inactive)
GI50 (OVCAR-8): > 100 µM (inactive)
GI50 (SR): 68.5 µM (inactive)
GI50 (HOP-62): > 100 µM (inactive)
GI50 (IGROV-1): > 100 µM (inactive)
GI50 (SNB-19): > 100 µM (inactive)
GI50 (786-0): > 100 µM (inactive)
GI50 (K562): 45.6 µM (inactive)
GI50 (OVCAR-3): > 100 µM (inactive)
GI50 (OVCAR-4): > 100 µM (inactive)
GI50 (SF-268): > 100 µM (inactive)
GI50 (ACHN): > 100 µM (inactive)
GI50 (SF-295): > 100 µM (inactive)
GI50 (MOLT-4): 42.7 µM (inactive)
GI50 (Malme-3M): > 100 µM (inactive)
GI50 (RXF 393): > 100 µM (inactive)
GI50 (SF-539): > 100 µM (inactive)
GI50 (SK-OV-3): > 100 µM (inactive)
GI50 (U-251): > 100 µM (inactive)
GI50 (BT-549): > 100 µM (inactive)
GI50 (SN12C): > 100 µM (inactive)
GI50 (HCC 2998): > 100 µM (inactive)
GI50 (SK-MEL-5): > 100 µM (inactive)
